Reference: patent publication US20200222418A1, “USE OF PHENOTHIAZINE DERIVATIVE IN THE TREATMENT OF INFECTION CAUSED BY BACTERIA CARRYING TYPE IV PILI” (priority 2017, published 2020)

Experiments:
[1] = system: Nm2C4.3 microcolonies on HBMEC, human bone marrow endothelial cell line; experiment: Dispersion of meningococcal microcolonies on HBMEC (vascular colonisation index); assay type: cell-based, Neisseria meningitidis; conditions: 30 min, Trifluoperazine 10-40 μM, Gentamicin 150 μg/ml, Cefotaxim 20 μg/ml
Description: Human […] microvascular endothelial cells (HBMEC) were infected with Nm2C4.3 for 1 h 30, treated with Trifluoperazine (10-40 μM) for 30 minutes, before fixation and immunofluorescence analysis using anti-Nm2C4.3 antibody and Alexa Fluor 633 Phalloidin. (A) Representative fluorescence microscopy showing bacterial colony (white dots) formed at the surface of the endothelial cells. (B) Quantification of the bacterial colonization was performed using Image J software.
HBMEC, a human endothelial cell line isolated from […] capillaries (Schweitzer et al., 1997) were grown in Dulbecco's Modified Eagle Medium (DMEM) 4.5 g/L-Glutamax (ThermoFischer) 10% FBS. Cells were grown on Thermanox coverslips coated with gelatin 2% (BD Difco #214340) for 2 days to reach confluency. Cells were then infected with a suspension of Nm2C4.3 (˜10^7 CFU/ml) in DMEM/FBS during 30 minutes to allow bacterial adhesion. Cells were then washed three times with medium to remove non-adherent bacteria and infection was pursued for 1 h 30: adherent bacteria grew at the endothelial cell surface and formed micro-colonies. Trifluoperazine was then added to obtain final concentrations of 10, 20, 30 and 40 μM. After incubation for 30 minutes, cells were washed and fixed in 4% Paraformaldehyde for 10 min, washed three times with PBS, and permeabilized with 0.1% Triton X-100 in PBS for 10 min. Cells were blocked for 30 min with 3% BSA in PBS and were incubated for 2 h with the primary antibodies (Rabbit polyclonal anti-Nm2C4.3 strain, kindly provided by Dr X. Nassif, INEM, Paris). After three washes with PBS, cells were incubated for 1 h with […] anti-rabbit IgG (Jackson ImmunoResearch Laboratories), together with Alexa Fluor 633 Phalloidin (Thermofischer) and DAPI ([…], Sigma Aldrich) to stain Actin and nuclei, respectively. Labelled preparations were mounted in Glycergel media (DAKO) and image acquisitions were performed with a DM16000 microscope (Leica, X40). Quantification was done with ImageJ software (NIH). […]

[2] = system: HBMECs infected with meningococci; experiment: PECAM-1 recruitment at bacterial adhesion sites in infected HBMEC; assay type: cell-based, human; conditions: 5 μM for 2 h during infection
Description: (A) Monolayers of HBMECs were non-infected or infected for 2 h with meningococci and the effect on the localisation of the endothelial cell junction proteins PECAM-1 and […]-catenin was analysed by immunofluorescence analysis. Arrows point at PECAM-1 molecules recruited at bacterial adhesion sites (B) HBMECs were infected for 2 h with meningococci in the presence or in the absence of 5 μM Trifluoperazine and the effect on junctional PECAM-1 and on the endothelial cell cytoskeleton remodelling (Ezrin, Actin) was analysed by immunofluorescence analysis. (C) Quantification of Actin and PECAM-1 recruitment at sites of bacterial adhesion was performed using Image J software.
When indicated, HBMECs were grown on Thermanox coverslips coated with gelatin 2% for 2 days to reach confluency. Cells were then infected as above described in the presence or in the absence of 5 μM Trifluoperazine for 2 h. Cells were washed and fixed in 4% paraformaldehyde and immunolabelling was performed with a polyclonal antisera raised anti-Nm2C4.3 strain, anti-human PECAM-1 mouse monoclonal, clone HEC7 (ABCAM ab119339) or rabbit polyclonal 177 raised against PECAM-1, obtained from WA Muller (Northwestern University, Chicago, Ill., US), anti-0 catenin (05-482, UBI), polyclonal antisera raised against Ezrin, Alexa Fluor 633 Phalloidin. […] Quantifications were done using ImageJ software (NIH).

[3] = system: Nm2C4.3 microcolonies on HCMEC/D3 human brain endothelial cell line; experiment: Dispersion of meningococcal microcolonies on human brain endothelial cells; assay type: cell-based, Neisseria meningitidis; conditions: 10-40 μM, 30 min
Description: A. HBMEC were infected with Nm2C4.3 for 1 h 30, treated with Trifluoperazine (10-40 μM) for 30 minutes, before fixation and immunofluorescence analysis using anti-Nm2C4.3 antibody and Alexa Fluor 633 Phalloidin. B. Quantification of the bacterial colonization was performed using Image J software.
HCMEC/D3, a well-established human brain endothelial cell line (Weksler et al, 2013) was grown in EBM-2 basal medium (Lonza, Walkersville, Md., USA) supplemented with 5% Fetal Bovine Serum “Gold”, 10 mM HEPES (PM Laboratories GmbH, Pasching, Austria), 1% Penicillin-Streptomycin, 1% chemically defined lipid concentrate (Invitrogen Ltd, Paisley, UK), 1.4 μM hydrocortisone, 5 μg·ml^−1 ascorbic acid and 1 ng·ml^−1 bFGF (Sigma-Aldrich, St. Louis, Mo.). Cells were grown on Thermanox coverslips coated with rat collagen I for 4 days at 37° C. in a humidified incubator in 5% CO2. Cells were then infected with a suspension of Nm2C4.3 (˜10^7 CFU/ml) in EBM2/FBS during 30 minutes to allow bacterial adhesion. Cells were then washed three times with medium to remove non-adherent bacteria and infection was pursued for 1 h 30: adherent bacteria grew at the endothelial cell surface and formed micro-colonies. Trifluoperazine was then added to obtain final concentrations of 10, 20, 30 and 40 μM. […] Quantification was done with ImageJ software (NIH). […]

[4] = system: meningococcal colonization of the human dermal vasculature; experiment: In vivo meningococcal infection of mice engrafted with human skin

SMILES | dispersion of compact meningococcal microcolonies established at the endothelial cell surface [1] | PECAM-1 recruitment at bacterial adhesion sites [2] | bacterial colonization [2] | dispersion of meningococcal microcolonies at the surface of human brain endothelial cells [3] | colonization of the human dermal vasculature [4] | incidence of vascular alteration [4] | signs of intravascular coagulation [4] | hallmark of vascular inflammation ([4]; alone or in combination with cefotaxime)
CN[C@@H]1[C@@H](O)C(O[C@@H]2[C@@H](O)[C@H](O[C@H]3O[C@H]([C@@H](C)NC)CC[C@H]3N)[C@@H](N)C[C@H]2N)OC[C@]1(C)O (stereo partly drawn) [Gentamicin, (3R,4R,5R)-2-{[(1S,2S,3R,4S,6R)-4,6-diamino-3-{[(2R,3R,6S)-3-amino-6-[(1R)-1-(methylamino)ethyl]oxan-2-yl]oxy}-2-hydroxycyclohexyl]oxy}-5-methyl-4-(methylamino)oxane-3,5-diol] | poorly induced the dispersion |  |  |  |  |  |  | 
CN1CCN(CCCN2c3ccccc3Sc3ccc(C(F)(F)F)cc32)CC1 [Trifluoperazine] | induced their dispersion | prevented PECAM-1 recruitment | did not affect bacterial colonization | induced their dispersion | prevents the massive colonization | reduces incidence of vascular alteration | reduces the signs of intravascular coagulation | drastically reduced
